# Results as given in ChEMBL document CHEMBL6078666, “Discovery of Novel Coumarin Pleuromutilin Derivatives as Potent Anti-MRSA Agents” (J Med Chem, 2024).
# Calls of active or inactive are those of the source. The rule behind the calls is not given here.
# Columns and labels:
# HepG2 = experiment: Cytotoxicity against human HepG2 cells at 0 to 40 ug/ml measured after 24 hrs by MTT assay relative to control; format: functional; settings: dose 0-40 µg/ml
# Staphylococcus aureus [1] = experiment: Antibiofilm activity in methicillin-resistant Staphylococcus aureus ATCC 33591 assessed as inhibition of biofilm formation measured after 48 hrs by crystal violet staining based analysis relative to control; format: functional, organism-based
# Staphylococcus aureus [2] = experiment: (§1) Antibacterial activity against methicillin-resistant Staphylococcus aureus ATCC 33591 infected in female C57 mouse systemic infection model assessed as reduction in local blood cell accumulation in spleen at 40 mg/kg, iv administered twice daily and measured after 7 days by H and E staining based analysis; format: functional, organism-based; settings: time 7.0 day
# [3] = test system: Staphylococcus epidermidis; experiment: Ratio of MBC to MIC against methicillin-resistant Staphylococcus epidermidis clinical isolate 202409139; format: functional
# Staphylococcus aureus [4] = experiment: Antibiofilm activity in methicillin-resistant Staphylococcus aureus ATCC 33591 assessed as disruption of preformed biofilm at 4 to 16 times MIC measured after 24 hrs by crystal violet staining based assay relative to control; format: functional
# Staphylococcus aureus [5] = experiment: Antibacterial activity against Staphylococcus aureus ATCC 25923 assessed as reduction in GFP expression at 1 to 4 times MIC measured after 1 hr by fluorescence microscopy based analysis; format: functional, organism-based
# Streptococcus pneumoniae [6] = experiment: Antibacterial activity against penicillin-intermediate Streptococcus pneumoniae ATCC 49619 assessed as bacterial growth inhibition measured after 20 hrs by broth dilution method; format: functional
# Staphylococcus aureus [7] = experiment: Antibiofilm activity in methicillin-resistant Staphylococcus aureus ATCC 33591 assessed as inhibition of biofilm formation at 1/16 times MIC measured after 48 hrs by crystal violet staining based analysis relative to control; format: functional; set-up: scale not given: the % may be the effect or the level left
# Staphylococcus aureus [8] = experiment: Bactericidal activity against methicillin-resistant Staphylococcus aureus ATCC 33591 measured upto 24 hrs by time kill assay; format: functional, organism-based
# Staphylococcus aureus [9] = experiment: Antibacterial activity against methicillin-resistant Staphylococcus aureus ATCC 33591 infected in female C57 mouse systemic infection model assessed as reduction in bacterial load in liver at 40 mg/kg, iv administered twice daily and measured after 7 days; format: functional; settings: time 7 day
# Staphylococcus aureus [10] = experiment: Antibiofilm activity in methicillin-resistant Staphylococcus aureus ATCC 33591 assessed as disruption of preformed biofilm at 1 time MIC measured after 24 hrs by crystal violet staining based assay relative to control; format: functional
# [11] = AUC (0 to t) in mouse at 5 mg/kg, iv measured after 8 hrs; format: ADME, organism-based; settings: in vivo
# Staphylococcus aureus [12] = experiment: Antibacterial activity against methicillin-resistant Staphylococcus aureus ATCC 33591 infected in female C57 mouse systemic infection model assessed as survival rate at 40 mg/kg, po measured upto 7 days relative to control; format: functional; settings: ATCC 33591, 168 h, time <= 7 day
# Staphylococcus aureus [13] = experiment: Antibacterial activity against methicillin-resistant Staphylococcus aureus ATCC 33591 infected in female C57 mouse systemic infection model assessed as reduction in bacterial load in kidney at 40 mg/kg, iv administered twice daily and measured after 7 days; format: functional; settings: time 7 day
# [14] = test system: Staphylococcus epidermidis; experiment: Antibacterial activity against methicillin-resistant Staphylococcus epidermidis clinical isolate 202409139 assessed as bacterial growth inhibition measured after 20 hrs by broth dilution method; format: functional
# Staphylococcus aureus [15] = experiment: Drug resistance, ratio of MIC for Staphylococcus aureus ATCC 33591 after 8 days to MIC for methicillin-resistant Staphylococcus aureus ATCC 33591 after initial exposure; format: functional; settings: time 8 day
# Staphylococcus aureus [16] = experiment: Bactericidal activity against methicillin-resistant Staphylococcus aureus ATCC 33591 at 1 to 8 times MIC by time kill assay; format: functional, organism-based; settings: time <= 24.0 hrs
# Staphylococcus aureus [17] = experiment: Antibacterial activity against methicillin-resistant Staphylococcus aureus ATCC 33591 infected in female C57 mouse systemic infection model assessed as reduction in bacterial load in spleen at 40 mg/kg, iv administered twice daily and measured after 7 days; format: functional; settings: time 7 day
# Enterococcus faecium [18] = experiment: Antibacterial activity against vancomycin-resistant Enterococcus faecium ATCC 51559 assessed as bacterial growth inhibition measured after 20 hrs by broth dilution method; format: functional
# Staphylococcus aureus [19] = experiment: Ratio of MBC to MIC against methicillin-resistant Staphylococcus aureus clinical isolate 202311772; format: functional
# Streptococcus pneumoniae [20] = experiment: Ratio of MBC to MIC against penicillin-intermediate Streptococcus pneumoniae ATCC 49619; format: functional
# Staphylococcus aureus [21] = experiment: Antibacterial activity against methicillin-resistant Staphylococcus aureus ATCC 33591 assessed as bacterial growth inhibition measured after 20 hrs by broth dilution method; format: functional
# Staphylococcus aureus [22] = experiment: Bactericidal activity against methicillin-resistant Staphylococcus aureus ATCC 33591 at 2 times MIC measured after 8 to 12 hrs by time kill assay; format: functional, organism-based; settings: time 8-12 hrs
# Staphylococcus aureus [23] = experiment: Induction of morphological changes in methicillin-resistant Staphylococcus aureus ATCC 33591 assessed as appearance of wrinkled cell surface at 1 to 4 times MIC measured after 4 hrs by SEM analysis; format: functional, organism-based
# Staphylococcus aureus [24] = experiment: as §1, with “inflammatory infiltration” for “local blood cell accumulation”, “kidney” for “spleen”; format: functional, organism-based; settings: time 7.0 day
# Staphylococcus aureus [25] = experiment: (§2) Antibacterial activity against methicillin-resistant Staphylococcus aureus ATCC 33591 infected in female C57 mouse systemic infection model assessed as reduction of edema in kidney at 40 mg/kg, iv administered twice daily and measured after 7 days by H and E staining based analysis; format: functional, organism-based; settings: time 7.0 day
# Staphylococcus aureus [26] = experiment: Induction of morphological changes in methicillin-resistant Staphylococcus aureus ATCC 33591 assessed as appearance of rough cell surface at 1 time MIC measured after 4 hrs by SEM analysis; format: functional, organism-based
# Staphylococcus aureus [27] = experiment: Antibacterial activity against methicillin-resistant Staphylococcus aureus ATCC 33591 infected in female C57 mouse systemic infection model assessed as reduction in bacterial load in heart at 40 mg/kg, iv administered twice daily and measured after 7 days; format: functional; settings: time 7 day
# Staphylococcus aureus [28] = experiment: Ratio of MBC to MIC against methicillin-resistant Staphylococcus aureus clinical isolate 202405157; format: functional
# Staphylococcus aureus [29] = experiment: Induction of morphological changes in methicillin-resistant Staphylococcus aureus ATCC 33591 assessed as appearance of shrinked cell surface at 1 time MIC measured after 4 hrs by SEM analysis; format: functional, organism-based
# L02 = experiment: Cytotoxicity against human HL7702 cells at 0 to 40 ug/ml measured after 24 hrs by MTT assay relative to control; format: toxicity, cell-based; settings: l02, 24 h, dose 0-40 µg/ml
# Enterococcus faecium [30] = experiment: Ratio of MBC to MIC against vancomycin-resistant Enterococcus faecium clinical isolate 202308456; format: functional
# Staphylococcus aureus [31] = experiment: Antibiofilm activity in methicillin-resistant Staphylococcus aureus ATCC 33591 assessed as inhibition of biofilm formation at 1/16 time MIC measured after 48 hrs by crystal violet staining based analysis relative to control; format: functional; set-up: scale not given: the % may be the effect or the level left
# Staphylococcus aureus [32] = experiment: Antibacterial activity against methicillin-resistant Staphylococcus aureus clinical isolate 202313160 assessed as bacterial growth inhibition measured after 20 hrs by broth dilution method; format: functional
# Staphylococcus aureus [33] = experiment: as §2, with “mononuclear cell infiltration” for “edema”, “liver” for “kidney”; format: functional, organism-based; settings: time 7.0 day
# Staphylococcus aureus [34] = experiment: as §2, with “reduction” for “reduction of edema”, “disordered myocardial fibers in heart” for “kidney”; format: functional, organism-based; settings: time 7.0 day
# Staphylococcus aureus [35] = experiment: Antibacterial activity against methicillin resistant Staphylococcus aureus ATCC 33591 assessed as post antibiotic effect at 4 times MIC by time kill assay; format: functional
compound,measurement,setting,value
C=C[C@]1(C)C[C@@H](OC(=O)CSc2cc(=O)oc3cc(OC)ccc23)[C@]2(C)[C@H](C)CC[C@]3(CCC(=O)[C@H]32)[C@@H](C)[C@@H]1O,Activity,HepG2,>85%
same,Activity,Staphylococcus aureus [1],Dose-dependent-effect
same,Activity,Staphylococcus aureus [2],Active
same,Ratio,[3],2
same,Activity,Staphylococcus aureus [4],68.29%
same,Activity,Staphylococcus aureus [5],Active
same,MIC,Streptococcus pneumoniae [6],0.031 µg/mL
same,Activity,Staphylococcus aureus [7],80.67%
same,Activity,Staphylococcus aureus [8],Dose-dependent-effect
same,Activity,Staphylococcus aureus [9],2.05 log10CFU/g
same,Activity,Staphylococcus aureus [10],30.31%
same,AUCt,[11],1740 ng·h/mL
same,survival at 40 mg/kg,Staphylococcus aureus [12],80%
same,Activity,Staphylococcus aureus [13],1.91 log10CFU/g
same,MIC,[14],0.031 µg/mL
same,fold change (FC),Staphylococcus aureus [15],4
same,Activity,Staphylococcus aureus [16],Time-dependent-effect
same,Activity,Staphylococcus aureus [17],1.68 log10CFU/g
same,MIC,Enterococcus faecium [18],0.031 µg/mL
same,Ratio,Staphylococcus aureus [19],1
same,Ratio,Streptococcus pneumoniae [20],>4
same,MIC,Staphylococcus aureus [21],0.031 µg/mL
same,Activity,Staphylococcus aureus [22],Active
same,Activity,Staphylococcus aureus [23],Active
same,Activity,Staphylococcus aureus [24],Active
same,Activity,Staphylococcus aureus [25],Active
same,Activity,Staphylococcus aureus [26],Active
same,Activity,Staphylococcus aureus [27],3.33 log10CFU/g
same,Ratio,Staphylococcus aureus [28],2
same,Activity,Staphylococcus aureus [29],Active
same,Activity,L02,> 85%
same,Ratio,Enterococcus faecium [30],2
same,Activity,Staphylococcus aureus [31],50.42%
same,MIC,Staphylococcus aureus [32],0.063 µg/mL
same,Activity,Staphylococcus aureus [33],Active
same,Activity,Staphylococcus aureus [34],Active
same,PAE,Staphylococcus aureus [35],1.9 h
